Source: US20250177366A1, “COMPOSITIONS AND METHODS FOR ALLEVIATING PAIN AND REDUCING ADVERSIVENESS OF STIMULI” (UNIVERSITY OF WASHINGTON, priority 2021, published 2025)

Key:
larval zebrafish [1] = assay: AITC aversion assay (chemical attraction/aversion, AITC-infused agarose); assay type: in vivo, Zebrafish (Danio rerio); details: AITC 100 mM in agarose
From the text: Whether the effects of AS1 extended beyond noxious temperature sensation or could also impact other somatosensory modalities was next explored. To accomplish this, a chemical attraction/aversion assay where a thin layer of agarose was deposited along the edges of a square arena (Jordi et al., Sci. Adv. 2018; 4:1-15) were adapted. Along one wall, the agarose contained the chemical to be tested, while the other three walls were lined with control agarose. It was anticipated that a chemical gradient would be established as chemical diffused from the agarose into the surrounding water. Larvae were pre-incubated in either vehicle or AS1 and then added to the arena and the distance of each larva from the chemical-infused agarose was measured. In control experiments where all four walls of the arena were lined with agarose only, AS1 and vehicle-treated larvae were dispersed evenly throughout the arena (FIG. 3). […] When the nociceptive chemical AITC (100 mM, 10,000× maximal effective dose) was tested, vehicle-treated larvae swam away from the AITC source.
(§1) Chemical attraction/aversion assays. The agarose attraction/aversion assay was adapted from previously described experiments (Jordi et al., Sci. Adv. 2018; 4:1-15). For the AITC aversion assay, AITC and DMSO were added to molten 0.8% agarose to achieve a final concentration of 100 mM AITC and 2% DMSO. For the AS1 attraction/aversion assay, AS1 and DMSO were added to 0.8% molten agar to achieve final concentrations of 50 mM and 2%, respectively. To construct the test chambers, the lids of 10×10 cm square petri dishes (insert cat #and company) were lined on four sides with either the test (chemical-containing) or plain agarose (300 μL per side) and allowed to solidify. For all experiments, 30-40 randomly selected 6 dpf zebrafish were caught with a 10 mL pipette pump (Bel-Air Products, cat #: 13683C) equipped with a glass wide-bored Pasteur pipet (Fisher Scientific, cat #: 22-037-540) and deposited into a standard 10 cm diameter petri dish (Fisher Scientific, cat #: 07-202-031). As much E2 media as possible was carefully removed using the same pipette. For single incubation experiments, 30 mL of 1× solutions of the control or test chemical was added to each petri dish, and fish were incubated for 10 minutes at 28.5° C. For double incubation experiments, 15 mL of 1× solutions containing control (DMSO) or test chemicals was added to the larvae-containing petri dish. Following a ten minute incubation, 15 mL of the second incubation solution (1× control or test chemical +/−2× AS1) was added to the petri dish, and the fish were incubated for a second ten minute block. The final concentration of DMSO in all solutions was 1%. In all double-incubation experiments, the final concentration of AS1 was 5 μM unless otherwise noted. After completion of the last incubation period, the contents of each petri dish were poured into separate agarose-lined square dishes. Swimming behavior was immediately recorded for 20 minutes using the same high-definition camcorder in the thermal preference assays.

larval zebrafish [2] = assay: Chemical attraction/aversion assay with the test chemical itself as source (inherent attractiveness); assay type: in vivo, Zebrafish (Danio rerio)
From the text: To confirm that AS1 itself was not attractive, the chemical attraction/aversion assay was used. […] Since the assay was modified to accommodate the inability to dissolve SKF into agarose at high concentrations (see Materials and Methods), the inherent attractiveness of AS1 was re-tested using this new format.
as §1, with “Following a ten minute incubation, 15 mL of the second incubation solution (1× control or test chemical +/−2× AS1) was added to the petri dish, and the fish were incubated for a second ten minute block. The final concentration of DMSO in all solutions was 1%. In all double-incubation experiments, the final concentration of AS1 was 5 μM unless otherwise noted. After completion of the last incubation period, the contents of each petri dish were poured into separate agarose-lined square dishes.” left out
For the SKF attraction/aversion assay, custom 10 cm×10 cm plates using clear resin (Formlabs, cat #: RS-F2-GPCL-04) and a Form 3+3D printer (Formlabs, cat #: PKG-F3-WSVC-BASIC) were designed. […] Swimming behavior was then recorded for 20 minutes. […]

[3] = test system: T1, 5-HT2a serotonin receptor (Homo sapiens); assay: PDSP radioligand binding assay; details: PDSP screen
T1 construct: Psychoactive Drug Screening Program (PDSP)
T1 sequence (P41595 whole entry): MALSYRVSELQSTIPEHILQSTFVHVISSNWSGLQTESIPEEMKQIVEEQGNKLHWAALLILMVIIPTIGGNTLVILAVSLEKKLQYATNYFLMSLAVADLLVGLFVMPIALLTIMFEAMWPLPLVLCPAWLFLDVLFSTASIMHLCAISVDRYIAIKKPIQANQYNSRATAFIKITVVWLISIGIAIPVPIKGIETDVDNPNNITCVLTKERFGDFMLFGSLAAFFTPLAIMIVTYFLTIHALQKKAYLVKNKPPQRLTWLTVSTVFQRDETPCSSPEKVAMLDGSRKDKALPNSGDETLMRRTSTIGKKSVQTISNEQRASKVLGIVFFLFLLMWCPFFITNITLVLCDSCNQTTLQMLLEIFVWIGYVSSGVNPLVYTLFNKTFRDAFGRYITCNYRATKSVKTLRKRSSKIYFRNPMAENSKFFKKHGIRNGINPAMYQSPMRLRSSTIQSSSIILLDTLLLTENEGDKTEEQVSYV
Experimental: (§2) To further seek out the molecular target(s) of AS1, the resources of the Psychoactive Drug Screening Program (PDSP) (Besnard et al., Nature. 2012; 492:215-220) were utilized. […] While not being limited to mechanism or theory, to verify whether these receptors were involved in mediating the effects of AS1, the thermal preference assay following incubation in drugs that specifically acted upon these receptors was employed. […] Nor did treatment with the 5-HT2 s antagonist LY266097 replicate or reverse the effects of AS1 (FIG. 6). Incubation in either the specific sigma-1 receptor agonist (PRE-084) or antagonist (BD1063) similarly yielded no effects (FIG. 6).

sigma-1 receptor = biological target: T2, sigma-1 receptor (Homo sapiens, UniProt Q99720); assay: PDSP radioligand binding assay; details: PDSP screen
T2 construct: Psychoactive Drug Screening Program (PDSP)
T2 sequence (Q99720 whole entry, species assumed): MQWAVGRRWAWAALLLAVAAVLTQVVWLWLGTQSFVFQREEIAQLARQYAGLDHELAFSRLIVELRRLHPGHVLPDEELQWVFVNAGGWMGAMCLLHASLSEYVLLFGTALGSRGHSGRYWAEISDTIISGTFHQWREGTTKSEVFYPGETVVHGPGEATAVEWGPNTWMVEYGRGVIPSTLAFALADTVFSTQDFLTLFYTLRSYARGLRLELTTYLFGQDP
Experimental: as §2

`CC(C)c1ccc(C(=O)Nc2ccncc2)cc1` [AS1, 4-propan-2-yl-N-pyridin-4-ylbenzamide] was tested, and the “attraction/aversion to AITC source” value (larval zebrafish [1]; 1 μM AS1) was “unable to induce attraction to AITC”, the “attraction/aversion to AITC source” value (larval zebrafish [1]; 2.5 μM AS1) was “largely replicated the effects of 5 μM AS1” and the “attraction/aversion to AITC source” value (larval zebrafish [1]; 5 μM AS1) was “strongly preferred to be near the AITC source”. For the same compound, the “inherent attractiveness of chemical infused into agarose” value (larval zebrafish [2]; 50 mM AS1 in agarose on one side of square arena vs control agarose) was “did not approach it in a way that was appreciably different from control agarose”, the “inherent attractiveness of chemical deposited into trough” value (larval zebrafish [2]; 2 mL in trough of 3D-printed arena, SKF 25 μM, AS1 10 μM-1 mM) was “neutral or mildly aversive” and the radioligand binding interaction [3] was “potentially weak interactions”. For the same compound, the radioligand binding interaction (sigma-1 receptor) was “potentially weak interactions”.
